This assay deals with calcium-independent phospholipase A2 (Canis familiaris). In words: Compounds were evaluated for the inhibitory activity against canine myocardial cytosolic calcium-independent phospholipase A2.

For orientation: IC50 means the midpoint of a concentration-inhibition curve.

As to `O=C1O/C(=C/I)CCC1c1cccc2ccccc12` (configuration not stated) [(E)-6-Iodomethylene-3-naphthalen-1-yl-tetrahydro-pyran-2-one], the IC50 is 30 nM. In the case of `O=C1O/C(=C\I)CCC1c1cccc2ccccc12` (configuration not stated) [(Z)-6-(iodomethylene)-3-(naphthalen-1-yl)tetrahydro-2H-pyran-2-one] it was 190 nM.

These data come from BindingDB's records for doi:10.1021/jm00053a012 (Washington University, 1993).
